These molecules were tested against EGFR del19 T790M C797S protein in Ba/F3 cells (Homo sapiens, UniProt P00533, C797S/DEL746-750/T790M) (assay: pEGFR assay (AlphaScreen Surefire, EGFR Tyr1068 phosphorylation)).
Type: cell-based
Description: Transduced cells were selected using puromycin. Following selection, IL-3 was withdrawn and IL-3 independent cells cultured. p-EGFR Tyr1068 was determined using the AlphaScreen Surefire pEGF Receptor (Tyr1068) Assay (PerkinElmer, TGRERS). […] Subsequently, 60.000 cells/well in 60 μL were added. Cells were incubated with compound for 4 h at 37° C. […] The mixture was incubated at room temperature with shaking (700 rpm) for 20 min. After centrifugation, 4 μL of the lysate were transferred to Proxiplates. […] Plates were shaken for 1 min (1400 rpm) and incubated for 2 h at room temperature in the dark.
The results of the assay are provided as IC50 values (see table 12).

EGFR del19 T790M C797S protein in Ba/F3 cells, sequence (P00533 with tags, fused parts or gaps C797S/DEL746-750/T790M limits assumed): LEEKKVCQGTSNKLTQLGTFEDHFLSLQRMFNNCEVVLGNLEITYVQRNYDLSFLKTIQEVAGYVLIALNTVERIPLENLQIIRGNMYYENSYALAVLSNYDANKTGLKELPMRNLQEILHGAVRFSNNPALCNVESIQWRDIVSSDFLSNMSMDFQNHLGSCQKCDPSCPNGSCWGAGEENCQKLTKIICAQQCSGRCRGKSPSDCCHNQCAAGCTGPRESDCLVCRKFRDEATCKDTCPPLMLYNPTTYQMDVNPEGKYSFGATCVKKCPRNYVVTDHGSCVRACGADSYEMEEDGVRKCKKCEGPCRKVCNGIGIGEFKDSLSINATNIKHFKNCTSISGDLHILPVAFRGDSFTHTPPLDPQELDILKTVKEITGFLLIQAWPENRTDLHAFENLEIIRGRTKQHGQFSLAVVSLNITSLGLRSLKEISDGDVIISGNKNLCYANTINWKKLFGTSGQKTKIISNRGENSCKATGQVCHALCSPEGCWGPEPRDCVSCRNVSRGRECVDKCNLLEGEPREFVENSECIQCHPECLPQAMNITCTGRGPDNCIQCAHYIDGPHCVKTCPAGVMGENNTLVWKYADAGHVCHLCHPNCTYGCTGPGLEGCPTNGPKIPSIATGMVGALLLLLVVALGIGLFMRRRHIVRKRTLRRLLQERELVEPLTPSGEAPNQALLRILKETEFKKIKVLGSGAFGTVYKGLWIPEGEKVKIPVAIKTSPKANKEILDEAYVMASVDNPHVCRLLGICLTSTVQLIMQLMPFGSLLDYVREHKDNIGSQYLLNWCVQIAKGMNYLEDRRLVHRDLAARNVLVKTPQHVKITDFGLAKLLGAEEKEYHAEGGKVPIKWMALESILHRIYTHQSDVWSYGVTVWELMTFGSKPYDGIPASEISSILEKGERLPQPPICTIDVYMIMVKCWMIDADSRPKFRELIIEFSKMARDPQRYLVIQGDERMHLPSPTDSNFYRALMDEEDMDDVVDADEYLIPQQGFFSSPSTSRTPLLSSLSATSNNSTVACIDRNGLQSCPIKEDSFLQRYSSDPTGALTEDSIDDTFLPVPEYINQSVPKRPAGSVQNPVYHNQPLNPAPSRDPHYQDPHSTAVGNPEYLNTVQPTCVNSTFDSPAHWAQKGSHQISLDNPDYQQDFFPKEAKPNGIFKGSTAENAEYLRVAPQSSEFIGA

Structure (SMILES) | IC50 [nM]
CN(C)Cc1cccc(-c2cc(C(=O)/N=c3\[nH]c4ccccc4n3C3CCCCC3)ccn2)c1 [I-117] | 12
CC(C)(O)Cn1/c(=N/C(=O)c2ccnc(-c3cccc4ccnn34)c2)[nH]c2ccccc21 [I-90] | 12
CC(C)(O)Cn1/c(=N/C(=O)c2ccnc(-n3cnc4cccnc43)c2)[nH]c2ccccc21 [I-040] | 3
COc1ccccc1-c1cc(C(=O)/N=c2\[nH]c3ccccc3n2[C@H]2CCCC[C@@H]2O)ccn1 [I-97] | 14
COc1ccccc1-c1cc(C(=O)/N=c2\[nH]c3ccccc3n2[C@@H]2CCCC[C@H]2O)ccn1 [I-132] | 7
O=C(/N=c1\[nH]c2ccccc2n1[C@H]1CC[C@@H](O)CC1)c1ccnc(-n2ccc3ccccc32)c1 [I-125] | 11
O=C(/N=c1\[nH]c2ccccc2n1[C@H]1CC[C@@H](O)CC1)c1ccnc(-c2coc3ccccc23)c1 [I-174] | 9
COc1ccccc1-c1cc(C(=O)/N=c2\[nH]c3ccccc3n2[C@H]2CCCC[C@H]2O)ccn1 [I-186] | 23
Cc1ccccc1-c1cc(C(=O)/N=c2\[nH]c3ccccc3n2[C@H]2CC[C@@H](O)CC2)ccn1 [I-166] | 7
COc1ccccc1-c1cc(C(=O)/N=c2\[nH]c3cc(CN4CC(OC)C4)ccc3n2[C@H]2CC[C@@H](O)CC2)ccn1 [I-140] | 2
COc1ccccc1-c1cc(C(=O)/N=c2\[nH]c3cc(CN4CC[C@@H](OC)C4)ccc3n2[C@H]2CC[C@@H](O)CC2)ccn1 [I-159] | 6
COc1ccccc1-c1cc(C(=O)/N=c2\[nH]c3ccccc3n2[C@@H]2CCC[C@H](O)C2)ccn1 [I-129] | 5
Cc1cc(C(=O)/N=c2\[nH]c3ccc(N4CCN(C)CC4)cc3n2C2CCCCC2)cc(-c2cnn(C)c2)n1 [I-233] | 2
COc1ccccc1-c1cc(C(=O)/N=c2\[nH]c3cc(C4CCNCC4)ccc3n2[C@H]2CC[C@@H](O)CC2)ccn1 [I-120] | 3
COc1ccccc1-c1cc(C(=O)/N=c2\[nH]c3ccccc3n2[C@@H]2CCCOC2)ccn1 [I-122] | 2
COc1ccccc1-c1cc(C(=O)/N=c2\[nH]c3ccccc3n2[C@H]2CCCOC2)ccn1 [I-123] | 2
Cc1ccncc1-c1cc(C(=O)/N=c2\[nH]c3ccccc3n2CC(C)(C)O)ccn1 [I-016] | 58

Structure (SMILES) | IC50 [nM]
COc1ccccc1-c1cc(C(=O)/N=c2\[nH]c3ccccc3n2[C@@H]2CC[C@@H](O)[C@@H](O)C2)ccn1 [I-234] | 4
O=C(/N=c1\[nH]c2ccccc2n1[C@H]1CC[C@@H](O)CC1)c1ccnc(-c2csc3ccccc23)c1 [I-96] | 39
O=C(/N=c1\[nH]c2ccccc2n1[C@H]1CC[C@@H](O)CC1)c1ccnc(-n2ccnc2)c1 [I-226] | 7
COC[C@H]1CCCN1Cc1ccc2c(c1)[nH]/c(=N\C(=O)c1ccnc(-c3ccccc3OC)c1)n2[C@H]1CC[C@@H](O)CC1 [I-152] | 4
Cc1c(-c2cc(C(=O)/N=c3\[nH]c4ccccc4n3C3CCCCC3)ccn2)cnn1C [I-044] | 2
Cn1cnc2c(-c3cc(C(=O)/N=c4\[nH]c5ccccc5n4[C@H]4CC[C@@H](O)CC4)ccn3)cccc21 [I-182] | 15
O=C(/N=c1\[nH]c2ccccc2n1[C@H]1CC[C@@H](O)CC1)c1ccnc(-c2ccccc2Cl)c1 [I-160] | 6
CC(C)(O)Cn1/c(=N/C(=O)c2ccnc(-c3ccccn3)c2)[nH]c2ccccc21 [I-106] | 97
O=C(/N=c1\[nH]c2ccccc2n1[C@H]1CC[C@@H](O)CC1)c1ccnc(-c2ccc(F)cc2)c1 [I-177] | 12
Cc1cc(C(=O)/N=c2\[nH]c3ccc(N4CCN(C)CC4)cc3n2[C@H]2CC[C@@H](O)CC2)cc(-c2cnn(C)c2)n1 [I-227] | 2
CN(C)C(=O)c1cccc(-c2cc(C(=O)/N=c3\[nH]c4ccccc4n3CC(C)(C)O)ccn2)c1 [I-103] | 43
COc1ccccc1-c1cc(C(=O)/N=c2\[nH]c3cc(C4CCN(C(C)=O)CC4)ccc3n2[C@H]2CC[C@@H](O)CC2)ccn1 [I-121] | 2
COc1ccccc1-c1cc(C(=O)/N=c2\[nH]c3cc(CN4CCOCC4)ccc3n2[C@H]2CC[C@@H](O)CC2)ccn1 [I-142] | 3
CC(C)(O)Cn1/c(=N/C(=O)c2ccnc(-c3cccc4ccoc34)c2)[nH]c2ccccc21 [I-98] | 6
CC(C)(O)Cn1/c(=N/C(=O)c2ccnc(-c3cccs3)c2)[nH]c2ccccc21 [I-051] | 27
Cc1cc(C(=O)/N=c2\[nH]c3ccc(C4CCN(C)CC4)cc3n2C2CCCCC2)cc(-c2cnn(C)c2)n1 [I-228] | 2
COc1ccccc1-c1cc(C(=O)/N=c2\[nH]c3cc(CN4CCCC(OC)C4)ccc3n2[C@H]2CC[C@@H](O)CC2)ccn1 (some centres unmarked) [I-153] | 4

Results, then the molecule that gave them:

IC50 [nM] | Structure (SMILES)
3 | COCCN1CCC(c2ccc3c(c2)[nH]/c(=N\C(=O)c2ccnc(-c4cnn(C)c4)c2)n3CC(C)(C)O)CC1 [I-047]
63 | Cc1cc2c(cc1N(C)C)[nH]/c(=N\C(=O)c1ccnc(-c3cnn(C)c3)c1)n2CC(C)(C)O [I-231]
14 | CN(C)CCNc1ccc2c(c1)[nH]/c(=N\C(=O)c1ccnc(-c3cnn(C)c3)c1)n2CC(C)(C)O [I-82]
76 | CC(C)(O)Cn1/c(=N/C(=O)c2ccnc(-c3cccnc3)c2)[nH]c2cc(N3CCCCC3)ccc21 [I-77]
81 | CN(C)CCOCCNc1ccc2c(c1)[nH]/c(=N\C(=O)c1ccnc(-c3cnn(C)c3)c1)n2CC(C)(C)O [I-87]
68 | CCOC(=O)CCc1ccc2c(c1)[nH]/c(=N\C(=O)c1ccnc(-c3cnn(C)c3)c1)n2CC(C)(C)O [I-193]
71 | Cn1cc(-c2cc(C(=O)/N=c3\[nH]c4cc(N5CCC6(CCOCC6)CC5)ccc4n3CC(C)(C)O)ccn2)cn1 [I-74]
23 | COCCN1CCC(c2ccc3[nH]/c(=N\C(=O)c4cc(C)nc(-c5cnn(C)c5)c4)n(C4CCCCC4)c3c2)CC1 [I-229]
12 | Cn1cc(-c2cc(C(=O)/N=c3\[nH]c4cc(CCC(C)(C)O)ccc4n3CC(C)(C)O)ccn2)cn1 [I-178]
7 | COc1cnccc1-c1cc(C(=O)/N=c2\[nH]c3ccccc3n2CC(C)(C)O)ccn1 [I-164]
30 | COCCN(C)c1ccc2c(c1)[nH]/c(=N\C(=O)c1ccnc(-c3cccnc3)c1)n2CC(C)(C)O [I-065]
54 | Cn1cc(-c2cc(C(=O)/N=c3\[nH]c4cc(N5CCOC(C)(C)C5)ccc4n3CC(C)(C)O)ccn2)cn1 [I-75]
26 | Cc1cc2c(cc1N1CCN(C(C)C)CC1)[nH]/c(=N\C(=O)c1ccnc(-c3cnn(C)c3)c1)n2CC(C)(C)O [I-69]
9 | Cn1cc(-c2cc(C(=O)/N=c3\[nH]c4ccccc4n3[C@@H]3CCCC[C@H]3O)ccn2)cn1 [I-154]
74 | Cn1cc(-c2cc(C(=O)/N=c3\[nH]c4cc(F)ccc4n3CC(C)(C)O)ccn2)cn1 [I-194]
1 | Cc1ccc2c(c1)[nH]/c(=N\C(=O)c1ccnc(-c3cnn(C)c3)c1)n2[C@H]1CC[C@@H](O)CC1 [I-134]
7 | Cn1cc(-c2cc(C(=O)/N=c3\[nH]c4cc(C5CCCCO5)ccc4n3CC(C)(C)O)ccn2)cn1 (centres unmarked) [I-165]
27 | Cn1cc(-c2cc(C(=O)/N=c3\[nH]c4cc(CN5CCCCC5)ccc4n3CC(C)(C)O)ccn2)cn1 [I-057]
85 | Cn1cc(-c2cc(C(=O)/N=c3\[nH]c4ccc(F)cc4n3CC(C)(C)O)ccn2)cn1 [I-195]

From US11174245B2, “Benzimidazole compounds and derivatives as EGFR inhibitors” (Boehringer Ingelheim International GmbH, priority 2018, dated 2021)
